Experimental data from article PMC7558535, “In Vitro Metabolism of DWP16001, a Novel Sodium-Glucose Cotransporter 2 Inhibitor, in Human and Animal Hepatocytes” (Pharmaceutics, 2020).

What was measured:
Assay type in all cases: in vitro ADME
monkey hepatocytes = assay: Metabolic stability in monkey hepatocytes
Method: (§1) To evaluate the metabolic stability of DWP16001 in human, dog, monkey, mouse, and rat hepatocytes, pooled cryopreserved hepatocytes were carefully thawed in recovery medium and resuspended in incubation medium (Krebs–Henseleit buffer for mouse, rat, and human; William’s E media for dog and monkey) to 0.5 × 10^6 cells/mL for mouse, 0.67 × 10^6 cells/mL for rat, and 1.0 × 10^6 cells/mL for dog, monkey, and human in accordance with the manufacturer’s protocols. Then, 60-μL aliquots of these hepatocyte suspensions and an equal volume of 2 μM DWP16001 in incubation medium were mixed in 96-well plates and incubated in triplicate for 0, 30, 60, 90, 120, 180, or 240 min in a CO2 incubator at 37 °C. Reactions were stopped by addition of 120 µL of ice-cold acetonitrile to each well and the cell suspension was sonicated for 5 min at 4 °C, followed by centrifugation at 15,000× g for 10 min at 4 °C after 5 min of sonication. 80-µL aliquots of the supernatants were then vortex-mixed with 20 μL of ice-cold ketoconazole (an internal standard) in acetonitrile and analyzed by LC–tandem mass spectrometry (LC-MS/MS). The peak area ratios of DWP16001 versus internal standard at each sampling point were used for the subsequent calculation. Elimination parameters, including half-life (t1/2), intrinsic clearance (Clint), and hepatic clearance (Clhep) of DWP16001 in mouse, rat, dog, monkey, and human were calculated by the following equations [19]. (1) t1/2min=ln2/−k elimination slope (2) ClintmL/min/kg=ln2/t1/2×mL incubation/hepatocytes 10^6 cells×B×10^6 cells/g liver×A g liver/kg BW (3) ClhepmL/min/kg=Qh×Clint/Qh+Clint (4) Hepatic extraction ratio = Clhep/Qh
(§2) Here, A has values of 87.5, 40, 32, 32, and 25.7; B has values of 135, 117, 215, 120, and 139; Qh (representing hepatic blood flow) has values of 90, 55.2, 30.9, 43.4, and 20.7 mL/min/kg, for mouse, rat, dog, monkey, and human, respectively. Hepatic extraction ratio values of ≤ 0.25, 0.25–0.75, and ≥ 0.75 were regarded as low, moderate, and high, respectively.

[1] = Metabolic stability in monkey hepatocytes; conditions: pooled cryopreserved hepatocytes, monkey hepatocytes
Method: as §1, §2

dog hepatocytes = assay: Metabolic stability in dog hepatocytes
Method: as §1, §2

[2] = Metabolic stability in dog hepatocytes; conditions: pooled cryopreserved hepatocytes, dog hepatocytes
Method: as §1, §2

## OC[C@H]1O[C@@H](c2cc(Cc3ccc(C4CC4)cc3)c(Cl)c3c2CCO3)[C@H](O)[C@@H](O)[C@@H]1O [DWP16001, (2S,3R,4R,5S,6R)-2-(7-chloro-6-(4-cyclopropylbenzyl)-2,3-dihydrobenzofuran-4-yl)-6-(hydroxymethyl)tetrahydro-2H-pyran-3,4,5-triol]
Monkey hepatocytes; monkey
  Hepatic extraction ratio class: moderate (0.25–0.75)
Monkey hepatocytes; monkey hepatocytes
  Hepatic extraction ratio: 0.43
Monkey hepatocytes; monkey hepatocytes, well-stirred model
  Clhep: 18.5 mL/min/kg
[1]
  CLint scaled at 1 μM: 32.3 mL/min/kg
[1]; 37 °C, 0-240 min
  half-life at 1 μM: 2.75 h
Dog hepatocytes; dog
  Hepatic extraction ratio class: moderate (0.25–0.75)
Dog hepatocytes; dog hepatocytes, well-stirred model
  Clhep: 17.9 mL/min/kg
[2]
  CLint scaled at 1 μM: 42.7 mL/min/kg
[2]; 37 °C, 0-240 min
  half-life at 1 μM: 3.73 h
